Test results from patent US10472663B2, “Procedure for the rapid determination of bacterial susceptibility to antibiotics that inhibit protein synthesis” (ABM TECHNOLOGIES, LLC, priority 2015, dated 2019).

Tests used:
Format in all cases: cell-based
[1] = test system: Escherichia coli; experiment: Micromax assay of mitomycin C-induced DNA fragmentation after tobramycin (Example 2); conditions: for DNA fragmentation of nucleoids: tobramycin 4 μg/ml 30 min followed by mitomycin C 50 μg/ml 60 min
Procedure: FIGS. 7-9 depict a TG1 strain susceptible to the aminoglycoside tobramycin, an inhibitor of protein synthesis, and mitomycin C, an agent which induces DNA damage. The other strain illustrated in FIGS. 10-12 was a clinical isolate resistant to tobramycin.
One portion of both bacterial strains was incubated with tobramycin at 4 μg/ml for 90 min (FIGS. 7 and 10), a dosage indicated by the CLSI as the breakpoint of susceptibility to tobramycin in the standard antibiogram based on microdilution. Another portion of both strains was incubated with mitomycin C at 50 μg/ml for 60 min (FIGS. 8 and 11). Still another portion of both strains was incubated with tobramycin at 4 μg/ml for 30 min followed by mitomycin C at 50 μg/ml for 60 min, without removing the tobramycin (FIGS. 9 and 12). A final portion was left with no antibiotic.
After incubation, cells were processed using a variant of the Micromax technology to visualize nucleoids, i.e. bacterial chromosomal DNA, in all the cells of the population. Samples from cells from the culture are immersed in an agarose microgel on a slide and incubated with a specific lysing solution to remove the cell wall in all the cells and release in the microgel the nucleoids contained inside the bacteria. These are dried, stained with a highly sensitive fluorochrome for DNA like SYBR Gold and visualized under fluorescence microscopy, Nucleoids from E. coli obtained using the Micromax assay are represented in FIGS. 7-12, FIGS. 7-9 correspond to a strain susceptible to tobramycin (TG1) and FIGS. 10-12 to a strain resistant to tobramycin.

[2] = test system: Pseudomonas aeruginosa; experiment: Variant Micromax assay of cell enlargement by ceftazidime after tobramycin (Example 7)
Procedure: As an example, two strains of Pseudomonas aeruginosa exponentially growing in Mueller-Hinton broth were assayed. These strains were both susceptible to the β-lactam ceftazidime, which inhibits peptidoglycan synthesis. One strain was susceptible and the other resistant to the aminoglycoside tobramycin (an inhibitor of protein synthesis). For the purpose of rapidly distinguishing the susceptible and the resistant strain to tobramycin each strain was subjected to four treatments.
A portion of each strain was incubated with tobramycin at 4 μg/ml (the CLSI breakpoint of susceptibility) for 75 minutes. An assay of this portion is depicted at FIGS. 31 and 34. Another portion of each strain was incubated with ceftazidime at 0.5 μg/ml for 60 minutes. An assay of this portion is depicted at FIGS. 32 and 35. Still another portion of both strains was incubated with tobramycin at 4 μg/ml for 15 minutes followed by ceftazidime at 0.5 μg/ml for 60 minutes, without removing the tobramycin. Assays of these strains can be seen at FIGS. 33 and 36, respectively. A final portion of each strain was not treated with either antibiotic.
After incubation with the antibiotics, cells were processed using a variant Micromax technology to visualize the enlargement or not of the bacteria. Samples from each culture were immersed in an agarose microgel on a slide, dried, stained with a high sensitive fluorochrome for DNA like SYBR Gold and visualized under fluorescence microscopy to visualize cell shape and size.

[3] = test system: Escherichia coli; experiment: Variant Micromax assay of cell enlargement by low-dose mitomycin C after tobramycin (Example 8)
Procedure: As an example, two strains of Escherichia coli exponentially growing in Mueller-Hinton broth were incubated under four different conditions and then assayed. One strain was susceptible and the other resistant to the aminoglycoside tobramycin (an inhibitor of protein synthesis). For the purpose of rapidly distinguishing susceptible and non-susceptible strains to tobramycin each strain was incubated under four conditions.
A portion of each strain was incubated with tobramycin at 4 μg/ml for 90 minutes. As described previously, this dose is indicated by the CLSI as the breakpoint of susceptibility to tobramycin in the standard antibiogram based on microdilution. Another portion of both strains was incubated in Mitomycin C at 0.5 μg/ml for 60 minutes. Still another portion of each strain was incubated with tobramycin at 4 μg/ml for 30 minutes followed by mitomycin C at 0.5 μg/ml for 60 minutes, without removing the tobramycin. A final portion of both strains was not incubated with either antibiotic.
After the incubation, cells were processed using a variant Micromax technology to visualize any enlargement or not of the bacteria. Samples from cells from the culture were immersed in an agarose microgel on a slide, dried, stained with a highly sensitive fluorochrome for DNA like SYBR Gold and visualized under fluorescence microscopy to visualize cell shape and size. Images were similar those correspondent to the previous figure.

Compound: NC[C@H]1O[C@H](O[C@H]2[C@H](O)[C@@H](O[C@H]3O[C@H](CO)[C@@H](O)[C@H](N)[C@H]3O)[C@H](N)C[C@@H]2N)[C@H](N)C[C@@H]1O [tobramycin]
- DNA fragmentation of nucleoids ([1]; tobramycin-resistant clinical isolate): the DNA remained fragmented
- DNA fragmentation of nucleoids ([1]; tobramycin-susceptible TG1 strain): nucleoids without observable DNA fragmentation
- modification of nucleoids ([1]; tobramycin alone 4 μg/ml 90 min, both strains): does not result in modifications of the nucleoids
- cell enlargement ([2]; tobramycin 4 μg/ml 15 minutes followed by ceftazidime 0.5 μg/ml 60 minutes, tobramycin-resistant strain): bacteria appeared enlarged
- bacterial shape and size ([2]; tobramycin alone 4 μg/ml 75 minutes, both strains): does not affect the bacterial shape and size
- cell enlargement ([3]; tobramycin 4 μg/ml 30 minutes followed by mitomycin C 0.5 μg/ml 60 minutes, tobramycin-resistant strain): appeared enlarged
- bacterial shape and size ([3]; tobramycin alone 4 μg/ml 90 minutes, both strains): does not affect bacterial shape and size
